# Several values for one entry are separate records, joined by “and”; a condition that tells them apart may be missing. Identical values can stand only once. Like-named read-outs stand apart in the source and are kept apart here.
# Columns and labels:
# [1] = tested on: P. berghei liver stage parasites; design: method as in PMID 22096101; conditions: cited from earlier work
# β-hematin formation = assay: Detergent-based β-hematin inhibition assay; assay type: biochemical; conditions: cell-free, NP40 detergent, pH 4.8; read-out: βH Inhibition IC50, individual biological replicate
# Method: From this stock 40 μL of each was delivered to wells in the final column (column 12) of a 96-well plate together with distilled water (120 μL) and NP40 detergent (305.5 mM, 40 μL). […] A serial dilution of each compound (100 μL) from column 12 to column 2 was carried out. Column 1 served as a blank with 0 mM sample. A 25 mM hematin stock solution was prepared by sonicating hemin in DMSO for one minute and then suspending 179 μL of this in a 1 M acetate buffer (20 mL, pH 4.8). […] The plate was covered and incubated at 37°C for 5 h. […] Acetone (60 μL) was then added to assist with hematin dispersion. The UV-vis absorbance of the plate wells was read on a SpectraMax […] plate reader.
# [2] = tested on: 3D7 parasites (hemoglobin, 'free' heme, hemozoin); assay: Cellular heme fractionation assay; assay type: cell-based, Plasmodium falciparum; conditions: 3D7, 0.5 – 2.5× IC50, 30 h
# Excerpt: Cellular heme fractionation to measure the amounts of different heme species was thereafter conducted as previously described. […] Pellets were then resuspended in 1× PBS (pH 7.5) and an aliquot of the trophozoite suspension used to quantify the total number of trophozoites isolated using flow cytometry. Contents of the remaining trophozoite pellet were then released by hypotonic lysis and sonication. […] The UV−visible spectrum of each heme fraction as an Fe(III)heme−pyridine complex was measured using a multi-well plate reader (Spectramax 340PC; Molecular Devices). The total amount of each heme species was quantified using a heme standard curve whereby the mass of each heme-Fe species per trophozoite (fg/cell) was calculated by dividing the total amount of each heme species by the corresponding number of parasites in that fraction as determined by flow cytometry. Statistical comparisons and analyses for trends were made on GraphPad Prism version 10 using Students’ t-test with Welch correction. The total amount of heme obtained from each fraction was quantified using a standard curve prepared from a 100 μg/mL heme standard solution of hematin (porcine) in 0.3 M NaOH. Serial dilutions of this standard were carried out in a 96-well plate with 100 μL 0.3 M NaOH as a blank. […] The visible spectra of heme as Fe(III)heme-pyridine complex were recorded in a multi-well plate reader. The amount of heme Fe per cell was calculated by dividing the total heme Fe in each fraction by the number of cells determined in each fraction.
# S. mansoni adult worms = tested on: S. mansoni adult worms; design: method as in PMID 24416463; conditions: 400 compounds of the Malaria Box; cited from earlier work
# [3] = tested on: P. falciparum PfQRP1 mutants (G1612V, D1863Y, D1829*, D1829A); assay: Dose-response assay on CRISPR-edited PfQRP1 mutant lines; assay type: cell-based, Plasmodium falciparum; conditions: for Susceptibility in CRISPR-edited G1612V and D1863Y PfQRP1 lines: versus silent-mutation and wildtype controls
# Method: To generate the PfQRP1 hydrolase mutants (D1829stop and D1829A), the pDC2-Cas9-gRNA-donor plasmid was transfected into the P. falciparum Dd2 line. Donor plasmid (50 µg) containing the sgRNA ([…]) and a pfqrp1 homology region of 672 bp, centred on the D1829 residue, was used for transfection. Transfectants were selected using 5 nM WR99210 (a potent inhibitor of P. falciparum dihydrofolate reductase (DHFR) provided by Jacobus Pharmaceuticals) for 8 days, followed by culturing without drug until parasites were observed. Parasite clones were obtained using limiting dilution cloning. Confirmation of gene editing was performed with allele-specific PCR (forward primer […] and reverse primer […]) and Sanger sequencing using an internal primer ([…]).
# (§1) Compound dose-response assays were performed in flat-bottom 96-well plates. Tightly synchronized ring-stage parasites were diluted to 1% parasitemia at 2% hematocrit, and incubated with a two-fold serial dilution of compounds in complete medium. Untreated parasites or uninfected RBCs were included in the assay plate as controls. Parasite growth was assessed after 72 h by lysing parasites using 2× lysis buffer consisting of 10 mM Tris-HCl, 5 mM EDTA, 0.1% w/v saponin, and 1% v/v Triton X-100, supplemented with 2× SYBR Green I (Molecular Probes). The fluorescence was measured using a FluorStar Omega v5.11 plate reader. IC50 analysis was performed using GraphPad Prism v9, and statistical significance was determined by a two-sided Mann-Whitney U test. All assays were performed in technical duplicate with at least three biological replicates, as noted in the figure legends.
# S. mansoni schistosomula = tested on: S. mansoni schistosomula; design: method as in Padalino et al. [13]; conditions: ref Padalino et al. [13], cited from earlier work
# HepG2 cells = tested on: HepG2 cells; design: method as in Padalino et al. [13]; conditions: ref Padalino et al. [13], cited from earlier work
# P. falciparum Dd2 [4] = assay: Compound dose-response assay (72 h, SYBR Green I), Dd2; assay type: cell-based, Plasmodium falciparum; conditions: for Selectivity index HepG2/Dd2: HepG2 72 h CC50 / Pf Dd2 IC50; for IC50: 72 h, asexual blood stage
# Method: (§2) P. falciparum parasites were cultured at 3% hematocrit in RPMI 1640 (Gibco) medium consisting of 0.5% Albumax II (Gibco), 25 mM HEPES (Sigma), 0.21% sodium bicarbonate, 1x GlutaMAX (Gibco), 25 μg/mL gentamicin (Gibco). A tri-gas mixture (1% O2, 3% CO2, and 96% N2) was used for parasite cultures. Parasites were synchronized using a sorbitol and Percoll density gradient method. The following parasite strains were used: 3D7, Dd2 (MR4, MRA-156, T. Wellems), GB4 (MR4, MRA-925, T. Wellems), UG659 (P. Rosenthal), Tanzania (MR4, MRA-1169, Michal Fried), Cam/PH0212C (R. Fairhurst), and Cam3.II/ PH0306-C (R. Fairhurst). Transfection was performed using ring-stage parasites (5–8% parasitemia) using a Gene Pulser Xcell (Biorad) electroporator.
# as §1
# [5] = tested on: P. falciparum ring, trophozoite and schizont stages; assay: Stage specificity assay; assay type: cell-based, Plasmodium falciparum; conditions: for Stage-specificity: 10 h pulse at ring, trophozoite or schizont stage
# Method: Stage-specific drug assays were performed following a protocol modified from Murithi et al.. In this assay, parasites were tightly synchronized to the ring stage with repeated 5% sorbitol treatments. On the assay day, schizonts were purified using a 63% Percoll gradient and allowed to […]. […] Parasites were then plated in 96-well plates and exposed to different drug concentrations at various stages: […] Drug treatment was removed through three rounds of washes. Plates were lysed 62 h after drug washout, and parasite growth was assessed similarly to the standard 72 h assay that used constant drug exposure.
# [6] = tested on: P. falciparum strains Cam/PH0212C, Cam3.II/PH0306-C, UG659, GB4, Tanzania; assay: Dose-response assay against panel of geographically distinct strains; assay type: cell-based, Plasmodium falciparum; conditions: Cambodian isolates
# Method: as §2, §1
# [7] = tested on: Dd2-Polδ clones C22-1.1 and C22-2.1; assay: Dose-response assay on compound 22-selected clones (cross-resistance); assay type: cell-based, Plasmodium falciparum
# Method: Resistance selections were performed using a mutator parasite line Dd2-Polδ with an elevated mutation rate. Three independent flasks with either 1×10^8 or 1×10^9 parasites each were treated with 5×IC50, and parasite death was monitored by microscopy (Giemsa staining). […] After eight days, compounds were removed from the media and the media was changed on alternate days. […] For recrudescent cultures, compound susceptibility was determined by dose-response assays. Parasite clones were obtained by limiting dilution and harvested for genomic DNA extraction, followed by whole-genome sequencing.
# as §1
# P. falciparum 3D7 = assay: Compound dose-response assay (72 h, SYBR Green I), 3D7; assay type: cell-based, Plasmodium falciparum; conditions: for Selectivity index HepG2/3D7: HepG2 72 h CC50 / Pf 3D7 IC50; for IC50: 72 h, asexual blood stage
# Method: as §2, §1
# P. falciparum Dd2 [8] = assay: Rate of killing (CFDA-SE labelled RBC reinvasion); assay type: cell-based, Plasmodium falciparum; conditions: Dd2, 10×IC50, 24 h or 48 h
# Method: The rate of killing was evaluated as previously described in Linares et al.. […] After treatment, the compound was removed, and the culture was diluted (1/3) using fresh RBCs (2% haematocrit) pre-labelled with CFDA-SE (carboxylfluorescein diacetate succinimidyl ester, Life Technologies). Following a 48 h incubation under standard conditions, the ability of treated parasites to infect fresh labelled RBCs was measured using a Cytoflex flow cytometer by quantifying double-positive RBCs after labelling the parasites with MitoTracker Deep Red. Parasite viability was determined as the percentage of infected CFDA-SE-labelled RBCs in drug-treated samples at 24 and 48 h, compared to equivalent untreated controls. Standard compounds dihydroartemisinin, chloroquine, and atovaquone were used as benchmarks for comparing the killing rate of the test compounds.
# [9] = 72 h, read-out: 72 h -phenotype EC50
# [10] = average of phenotype and motility, read-out: Average EC50
# [11] = HepG2, 24 h, read-out: 24 h CC50
# [12] = HepG2, 72 h, read-out: 72 h CC50
# [13] = Plasmodium falciparum, DD2, 72 h
# [14] = Plasmodium falciparum, 3D7, 72 h
SMILES,Activity against S. mansoni adult worms (S. mansoni adult worms),Effect of D1829 stop / D1829A PfQRP1 mutation on IC50 [3],EC50 (S. mansoni schistosomula; [9]) [nM],EC50 (S. mansoni schistosomula; [10]) [nM],EC50 (S. mansoni schistosomula; read-out: Motility EC50) [nM],CC50 (HepG2 cells; [11]) [nM],CC50 (HepG2 cells; [12]) [nM],Selectivity index HepG2/Dd2 (P. falciparum Dd2 [4]),IC50 (P. falciparum Dd2 [4]; [13]) [nM],Drop in potency for a 10 h pulse compared with continuous exposure for 72 h [5],Stage-specificity [5],Potency against panel of geographically distinct strains [6],Shift in IC50 in compound 22-selected clones versus parental Dd2-Polδ [7],Selectivity index HepG2/3D7 (P. falciparum 3D7),IC50 (P. falciparum 3D7; [14]) [nM],Rate of parasite killing (P. falciparum Dd2 [8]),Increase in IC50 in D1829A / D1829 stop PfQRP1 mutants [3],Susceptibility in CRISPR-edited G1612V and D1863Y PfQRP1 lines [3],other results
"Brc1ccc(Nc2nc3ccccc3nc2Nc2ccc(Br)cc2)cc1 [MMV007224, 2-N,3-N-bis(4-bromophenyl)quinoxaline-2,3-diamine]",among the most active hits,less potent,,,,,,,,,,,,,,,,,Activity against P. berghei liver stage parasites [1]: did not show activity; IC50 (β-hematin formation): 146000 nM and 198000 nM; Levels of 'free' heme or hemozoin relative to untreated controls [2]: no significant changes; Undigested hemoglobin levels [2]: modest concentration-dependent increase
O=[N+]([O-])c1ccc2nc(Nc3cc(C(F)(F)F)ccc3F)c(Nc3cc(C(F)(F)F)ccc3F)nc2c1 [Compound 33],,not affected,150,150,150,27500,100,14.1,7.1,3–4 fold,did not demonstrate a strong stage-specificity,potencies similar to those recorded for the lab strain Dd2,unexpectedly not,22.2,4.5,rapidly reduced parasitemia,,,
O=[N+]([O-])c1ccc2nc(Nc3ccc(Cl)c(Cl)c3)c(Nc3ccc(Cl)c(Cl)c3)nc2c1 [Compound 22],,elevated IC50,470,440,420,7400,260,8.0,32,3–4 fold,did not demonstrate a strong stage-specificity,potencies similar to those recorded for the lab strain Dd2,small but consistent shift in IC50,11.9,22,rapidly reduced parasitemia,2–3 fold,reduced susceptibility,IC50 (P. falciparum Dd2 [4]): 32.4 nM; IC50 (P. falciparum 3D7): 21.9 nM
O=[N+]([O-])c1ccc2nc(Nc3ccc(C(F)(F)F)cc3)c(Nc3ccc(C(F)(F)F)cc3)nc2c1 [Compound 31],,elevated IC50,340,310,280,8800,80,5.7,14,3–4 fold,did not demonstrate a strong stage-specificity,potencies similar to those recorded for the lab strain Dd2,small but consistent shift in IC50,8.2,9.7,rapidly reduced parasitemia,2–3 fold,reduced susceptibility,
O=C(Nc1ccc(Cl)c(Cl)c1)Nc1ccc(Cl)c(Cl)c1 [MMV665852],most active compounds,,,,,,,,,,,,,,,,,,
